Reference: the supplement of paper PMC10307832

Assays:
Assay in all cases: relative viability (nuclei count vs DMSO), 5 days (fraction); higher = more cells survive
[1] = compound: C=CC(=O)Nc1cc(-n2c(=O)ccc3cnc4ccc(-c5ccc(NS(C)(=O)=O)cc5)cc4c32)ccc1C [BMX-IN-1] + CS(=O)(=O)CCNCc1ccc(-c2ccc3ncnc(Nc4ccc(OCc5cccc(F)c5)c(Cl)c4)c3c2)o1 [Lapatinib] (partner 2 µM)
Procedure, shortened: (§1)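 Lung cancer cell lines in 1536-well plates were dosed by pin tool the day after seeding, either with one drug alone or with a fixed anchor-drug dose plus five library-drug doses (not always all listed) in √10 steps. After 5 days, cells were fixed and their nuclei stained in one step (final 0.05% Triton X-100, 1% formaldehyde, 1 ug/ml Hoechst), then counted on 4× images. Relative viability is the nuclei count in treated wells divided by that in vehicle wells. Values are medians of duplicate plates.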

[2] = compound: C=CC(=O)N1CCC[C@@H](n2nc(-c3ccc(Oc4ccccc4)cc3)c3c(N)ncnc32)C1 [Ibrutinib] + CS(=O)(=O)N1CCN(Cc2cc3nc(-c4cccc5[nH]ncc45)nc(N4CCOCC4)c3s2)CC1 [Pictilisib] (partner 1 µM)
Procedure, shortened: as §1

[3] = compound: C=CC(=O)Nc1cc(-n2c(=O)ccc3cnc4ccc(-c5ccc(NS(C)(=O)=O)cc5)cc4c32)ccc1C [BMX-IN-1] + O=C(c1cc(Cc2n[nH]c(=O)c3ccccc23)ccc1F)N1CCN(C(=O)C2CC2)CC1 [Olaparib] (partner 8 µM)
Procedure, shortened: as §1

[4] = compound: C=CC(=O)N1CCC[C@@H](n2nc(-c3ccc(Oc4ccccc4)cc3)c3c(N)ncnc32)C1 [Ibrutinib] + C[C@@H](Oc1cc(-c2cnn(C3CCNCC3)c2)cnc1N)c1c(Cl)ccc(F)c1Cl [Crizotinib] (partner 1 µM)
Procedure, shortened: as §1

| Cell Line | relative viability ([1]; first compound 0.02 µM) | relative viability ([1]; first compound 0.2 µM) | relative viability ([1]; first compound 0.6325 µM) | relative viability ([1]; first compound 2 µM) | relative viability ([2]; first compound 0.005 µM) | relative viability ([2]; first compound 0.01581 µM) | relative viability ([2]; first compound 0.05 µM) | relative viability ([2]; first compound 0.1581 µM) | relative viability ([2]; first compound 0.5 µM) | relative viability ([3]; first compound 0.02 µM) | relative viability ([3]; first compound 0.2 µM) | relative viability ([3]; first compound 0.6325 µM) | relative viability ([3]; first compound 2 µM) | relative viability ([4]; first compound 0.005 µM) | relative viability ([4]; first compound 0.01581 µM) | relative viability ([4]; first compound 0.05 µM) | relative viability ([4]; first compound 0.1581 µM) | relative viability ([4]; first compound 0.5 µM) |
| --- | --- | --- | --- | --- | --- | --- | --- | --- | --- | --- | --- | --- | --- | --- | --- | --- | --- | --- |
| NCI-H1975 | 1.27 | 0.869 | 1.23 | 0.929 | 0.264 | 0.271 | 0.234 | 0.313 | 0.105 | 0.837 | 1.02 | 0.853 | 0.841 | 0.986 | 0.859 | 0.88 | 0.96 | 0.558 |
| RERF-LC-KJ | 0.876 | 0.944 | 0.963 | 0.918 | 0.482 | 0.518 | 0.46 | 0.548 | 0.441 | 0.968 | 1.09 | 1.06 | 0.923 | 0.865 | 0.742 | 0.825 | 0.889 | 0.815 |
